{
  "source": "patent US7785585B2",
  "about": "“Compositions comprising sclareol or derivatives thereof and uses thereof” (Avoca, Inc., priority 2004, dated 2010)",
  "test_system": "Human subcutaneous preadipocytes",
  "assay": "Lipolysis assay (glycerol release) in differentiated human subcutaneous preadipocytes",
  "assay_type": "cell-based",
  "description": "Human subcutaneous preadipocytes were obtained from human patients undergoing liposuction and pooled. The characteristics of the patients are shown below: • Sex: F • B.M.I.: 27.25 (avg.) • AGE: 43 (avg.) The human subcutaneous preadiposytes were designated lot #SL0028.\nPreadipocytes were plated in 96-well plates and allowed to differentiate in the absence of compounds (e.g., sclareolide or sclareolide+GPM) for about two weeks. On the day of the assay, the culture medium was removed and the cells were washed gently with Krebs-Ringer buffer (KRB) in the following manner. 120 μl of medium in the wells was removed and 200 μl/well of KRB was added. The KRB in the wells was removed and another aliquot of 200 μl/well of the KRB was added. The wells were washed one row at a time to ensure that the cells remained moist and stayed attached to the plate.\nNext, all of the KRB was removed and the cells were treated with 150 μl/well of the controls or 150 μl/well of the test compounds (resuspended in KRB with 1% BSA), either 1) sclareolide at […] or 2) sclareolide plus GPM at […], and incubated at 37° C. for five hours. The assay was performed in triplicate.\nAt the end of the treatment, 100 μl/well of the conditioned media was removed from the assay plate and added to the corresponding well of a new plate. […]\nThe optical density of each well of the new plate was measured at 540 nm.",
  "data": [
    {"compound": "CC1(C)CCC[C@]2(C)[C@H]3CC(=O)O[C@]3(C)CC[C@@H]12", "note": "[Sclareolide]", "values": [
      {"measurement": "% Increase in Lipolysis over Control", "setting": "Sclareolide concentration 10 μg/ml, 37° C. for five hours, glycerol assay, OD 540 nm, triplicate", "value": 55, "unit": "%"},
      {"measurement": "Lipolysis over the control (in words)", "setting": "sclareolide 10 μg/ml, sclareolide+GPM 7.5 μg/ml, five hours", "value": "significantly increased lipolysis over the control"}
    ]}
  ]
}
